# From patent publication US10174013B2, “Benzimidazole derivatives as kinase inhibitors” (SELVITA S.A., priority 2012, dated 2019)
# Read-outs that look alike come from different tables or passages of the source.
# Columns and labels:
# [1] = test system: MV4-11 cells; assay: Growth inhibition, MTS assay, MV4-11; assay type: cell-based, Human; conditions: MTS cell viability, read-out: MV4-11 ED50
# From the text: (§1) The following cell lines, were obtained and used in tests as outlined below: • Human myelomonocytic, biphenotypic leukemia MV4-11 cells (harboring a Flt3-ITD mutation); • Human Acute Myeloid Leukemia MOLM16 cells; • Human Acute Myeloid Leukemia MOLM13 cells (harboring a Flt3-ITD mutation); • Human Myeloid Leukemia KG-1 cells; • Human erythroleukemia HEL92 cells; • Human mantle cell lymphoma Jeko-1 cells; • Human hepatocellular carcinoma HepG2 cells; and • Human colon adenocarcinoma SW-480 cells.
# (§2) The assays were carried out according to the following protocol, which is described as an example for the MV4-11 cells:
# (§3) Ten thousand MV4-11 cells were inoculated into each well of a 96-well microplate (manufactured by Corning Corp.) using Iscove's MDM medium (culture medium) containing 10% fetal calf serum (FCS). The same day, a dimethyl sulfoxide (DMSO) solution of each test compound prepared in a concentration of 10 mmol/L was further diluted with DMSO to the desired concentrations (0.1, 0.5, 1, 2.5, 5 and 10 micromol/L), and the diluted solution was added to each well. The individual wells were further cultured in 5% carbon dioxide at 37° C. for 72 hours. […] Briefly, 10 μl MTS (3-(4,5-Dimethyl-2-thiazolyl)-5-(carboxymethoxyphenyl)-2-(4-sulfophenyl)-2H-tetrazolium was added to each well, and culturing was performed in 5% carbon dioxide at 37° C. for 2 hours. After this incubation and using a microplate spectrophotometer (Synergy 2 multi-mode microplate reader (BioTek)), the absorbance of each well was measured at 490 nm. The value for cells not incubated with a test compound was designated as 100%. By comparing these values with the absorbance difference obtained at the well in which each test compound was added, the cell viability (% viability) after treatment with the test compound was calculated.
# [2] = target: Pim-1 (Homo sapiens (Human), UniProt P11309); assay: ADP-Glo Kinase Assay, Pim-1; assay type: biochemical; conditions: 1 μM compound; for inhibition at 1 µM: read-out: Pim-1 % INH (1 μM)
# Sequence of Pim-1 (P11309 whole entry): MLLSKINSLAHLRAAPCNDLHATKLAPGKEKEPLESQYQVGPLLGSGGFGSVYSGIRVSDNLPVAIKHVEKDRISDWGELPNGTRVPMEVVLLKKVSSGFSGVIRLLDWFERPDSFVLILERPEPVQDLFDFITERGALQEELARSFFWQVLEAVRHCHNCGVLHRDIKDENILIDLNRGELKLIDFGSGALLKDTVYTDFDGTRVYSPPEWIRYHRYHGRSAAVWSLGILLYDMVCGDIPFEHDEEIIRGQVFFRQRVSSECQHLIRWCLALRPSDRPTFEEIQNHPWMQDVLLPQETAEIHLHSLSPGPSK
# Protocol: (§4) Compounds of the present invention were tested for their inhibitory activity against Pim-1, Pim-2, Pim-3, Flt3 wt, Flt3 ITD, CDK2/E and DYRK1. The testing of the compounds was carried out using the ADP-Glo™ Kinase Assay from Promega Corporation (Madison, Wis., USA).
# (§5) The ADP-Glo™ Kinase Assay is a luminescent ADP detection assay to measure kinase activity by quantifying the amount of ADP produced during a kinase reaction. The kinase assay is performed in kinase assay buffer (5 mM MOPS, pH 7.5, 5 mM MgCl2, 0.4 mM EDTA, 1.5 mM DTT). Test samples initially dissolved in DMSO at 10 mM were diluted with the assay buffer to 1000 nM. A 30 μL volume/well of a mixture of substrates containing ATP (final ATP concentration in each kinase assay was equal to its apparent ATP Km).
# (§6) The assay was performed in two steps: first, after the kinase reaction, an equal volume of ADP-Glo™ Reagent was added to terminate the kinase reaction and deplete the remaining ATP. Second, the Kinase Detection Reagent was added to simultaneously convert ADP to ATP and allowed the newly synthesized ATP to be measured using a luciferase/luciferin reaction. The luminescent signal generated was proportional to the ADP concentration produced and was correlated with kinase activity. A microplate spectrophotometer (Synergy 2 multi-mode microplate reader [BioTek]) was used for detecting the luminescence. The data was normalized and the percent of inhibition was obtained according to the following equation: […]
# [3] = target: DYRK1 (Homo sapiens (Human), UniProt Q13627); assay: ADP-Glo Kinase Assay, DYRK1; assay type: biochemical; conditions: 1 μM compound; for inhibition at 1 µM: read-out: DYRK1A % INH (1 μM)
# Protocol: as §4, §5, §6
# [4] = test system: HEL92 cells; assay: Growth inhibition, MTS assay, HEL92; assay type: cell-based, Human; conditions: MTS cell viability, read-out: HEL92 ED50
# From the text: as §1, §2, §3
# [5] = test system: HepG2 cells; assay: Growth inhibition, MTS assay, HepG2; assay type: cell-based, Human; conditions: MTS cell viability, read-out: HepG2 ED50
# From the text: as §1, §2, §3
# [6] = target: FLT3wt (Homo sapiens (Human), UniProt P36888); assay: ADP-Glo Kinase Assay, Flt3 wt; assay type: biochemical; conditions: 1 μM compound
# Sequence of FLT3wt (P36888 27-993): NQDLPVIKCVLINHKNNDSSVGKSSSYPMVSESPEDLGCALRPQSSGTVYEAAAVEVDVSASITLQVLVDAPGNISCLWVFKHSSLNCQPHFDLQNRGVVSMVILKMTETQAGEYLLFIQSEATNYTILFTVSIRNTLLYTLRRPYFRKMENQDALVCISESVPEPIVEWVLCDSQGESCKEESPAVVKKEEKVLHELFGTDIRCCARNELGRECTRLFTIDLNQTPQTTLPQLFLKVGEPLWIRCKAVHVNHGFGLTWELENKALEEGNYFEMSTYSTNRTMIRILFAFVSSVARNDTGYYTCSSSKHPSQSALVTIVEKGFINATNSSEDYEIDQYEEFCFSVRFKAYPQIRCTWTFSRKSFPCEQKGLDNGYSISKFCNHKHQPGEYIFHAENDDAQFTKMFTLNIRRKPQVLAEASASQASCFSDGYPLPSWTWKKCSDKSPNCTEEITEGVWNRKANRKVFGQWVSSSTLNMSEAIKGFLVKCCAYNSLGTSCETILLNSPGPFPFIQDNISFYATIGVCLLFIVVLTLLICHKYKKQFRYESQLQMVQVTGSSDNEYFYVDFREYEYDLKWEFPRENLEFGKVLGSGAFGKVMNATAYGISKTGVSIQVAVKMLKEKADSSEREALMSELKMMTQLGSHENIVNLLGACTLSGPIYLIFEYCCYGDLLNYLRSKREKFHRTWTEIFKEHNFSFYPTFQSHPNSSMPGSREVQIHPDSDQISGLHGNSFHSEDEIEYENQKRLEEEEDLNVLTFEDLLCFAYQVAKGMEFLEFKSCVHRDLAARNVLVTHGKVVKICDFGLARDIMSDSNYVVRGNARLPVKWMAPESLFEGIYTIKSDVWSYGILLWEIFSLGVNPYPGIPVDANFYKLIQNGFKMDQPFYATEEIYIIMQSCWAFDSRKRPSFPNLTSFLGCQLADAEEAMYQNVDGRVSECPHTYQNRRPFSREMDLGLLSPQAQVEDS
# Protocol: as §4, §5, §6
Molecule,IC50 ([1]; 72 hours) [µM],Pim-1 % INH (1 μM) [2] [%],DYRK1A % INH (1 μM) [3] [%],IC50 ([4]; 72 hours) [µM],IC50 ([5]; 72 hours) [µM],inhibition at 1 µM [2] [%],also measured
"5-bromo-6-methyl-4-nitro-2-(piperazin-1-yl)-1-(propan-2-yl)-1H-1,3-benzodiazole [Example 4B]",1.2,>95,51,4.1,1.8,–,–
CC(C)n1c(N[C@@H]2CCNC2)nc2c([N+](=O)[O-])c(Br)c(Br)cc21 [Example 1BF],2.0,–,–,7.6,2.3,–,–
CC(C)n1c(N[C@@H]2CCCNC2)nc2c([N+](=O)[O-])c(Br)c(Br)cc21 [Example 1CA],2.6,77,64,9.7,1.8,–,–
O=[N+]([O-])c1c(Br)c(Br)cc2c1nc(N[C@@H]1CCNC1)n2CC1CC1 [Example 1CJ],5.5,–,–,5.5,5.3,–,–
CC(C)n1c(N2CCNCC2)nc2c([N+](=O)[O-])c(Br)c(F)cc21 [Example 1CL],1.0,82,45,2.4,1.5,–,–
CCCn1c(N2CC[C@@H](N)C2)nc2c([N+](=O)[O-])c(Br)c(Br)cc21 [Example 1CM],0.8,>95,95,5.2,2.6,–,Flt3wt % INH (1 μM) [6]: 26%
CCn1c(N2CCNCC2)nc2c([N+](=O)[O-])c(Cl)c(Cl)cc21 [Example 1CN],3.3,76,27,9.4,4.5,–,–
CC(C)n1c(NC2CNC2)nc2c([N+](=O)[O-])c(Br)c(Br)cc21 [Example 1CR],1.1,>95,70,8.7,1.9,–,Flt3wt % INH (1 μM) [6]: 44%
CC(C)n1c(N2CC(N)C2)nc2c([N+](=O)[O-])c(Br)c(Br)cc21 [Example 1CX],–,–,–,–,–,> 95,"IC50 ([1]; Homo sapiens, MV4-11, 72 h): 1.2 µM; inhibition at 1 µM [3]: 73%; inhibition at 1 µM ([6]; read-out: Flt3wt % INH (1 μM)): 44%; IC50 ([4]; Homo sapiens, 72 h): 4.1 µM; IC50 ([5]; Homo sapiens, HepG2, 72 h): 3.1 µM"
CC(C)n1c(N2CC[C@@H](N)C2)nc2c([N+](=O)[O-])c(Br)c(F)cc21 [Example 1CY],2.1,>95,–,8.9,2.8,–,Flt3wt % INH (1 μM) [6]: <5%
CCn1c(N2CCNCC2C)nc2c([N+](=O)[O-])c(Cl)c(Cl)cc21 (stereo not drawn) [Example 1DA],0.5,91,36,1.1,0.9,–,–
N[C@@H]1CCN(c2nc3c([N+](=O)[O-])c(Br)c(Br)cc3n2CCCO)C1 [Example 1DF],2.0,>95,55,–,3.7,–,Flt3wt % INH (1 μM) [6]: 18%
O=[N+]([O-])c1c(Br)c(Br)cc2c1nc(N1CCNCC1)n2C1CCC1 [Example 1DG],0.2,>95,92,1.8,0.4,–,–
O=[N+]([O-])c1c(Br)c(Br)cc2c1nc(N1CCNCC1)n2CCO [Example 1DJ],–,–,–,–,–,95,"IC50 ([1]; Homo sapiens, MV4-11, 72 h): 0.6 µM; inhibition at 1 µM [3]: > 95%; IC50 ([4]; Homo sapiens, 72 h): 6.7 µM; IC50 ([5]; Homo sapiens, HepG2, 72 h): 2.1 µM"
CC(C)n1c(NC2CCNCC2)nc2c([N+](=O)[O-])c(Br)c(Br)cc21 [Example 1DK],5.5,>95,25,5.8,5.7,–,–
CC(C)n1c(N2CCNCC2CO)nc2c([N+](=O)[O-])c(Br)c(Br)cc21 (stereo not drawn) [Example 1DN],0.5,>95,38,4.5,0.9,–,Flt3wt % INH (1 μM) [6]: 55%
CCn1c(NC2CCC(N)CC2)nc2c([N+](=O)[O-])c(Br)c(Br)cc21 (stereo not drawn) [Example 1DO],4.3,93,–,–,2.2,–,–
CCn1c(N2CCC[C@H](NC)C2)nc2c([N+](=O)[O-])c(Br)c(Br)cc21 [Example 1DZ],–,–,–,–,–,> 95,–
CC[C@H]1CNCCN1c1nc2c([N+](=O)[O-])c(Br)c(Br)cc2n1C(C)C [Example 1EA],–,–,–,–,–,> 95,–
COC1CN(c2nc3c([N+](=O)[O-])c(Br)c(Br)cc3n2C(C)C)CC1N (stereo not drawn) [Example 1EB],–,–,–,–,–,> 95,–
"Cc1c(Br)cc2c(nc(N3CCNCC3)n2C(C)C)c1[N+](=O)[O-] [Example 4A, 5-methyl-6-bromo-4-nitro-2-(piperazin-1-yl)-1-(propan-2-yl)-1H-1,3-benzodiazole]",–,–,–,–,–,81,"IC50 ([1]; Homo sapiens, MV4-11, 72 h): 1 µM; IC50 ([4]; Homo sapiens, 72 h): 8.7 µM"
"N#Cc1c(Br)c(Br)cc2c1nc(N1CC[C@@H](N)C1)n2[C@H]1CCNC1 [Example 8G, 2-[(3R)-3-aminopyrrolidin-1-yl]-5,6-dibromo-1-[(3S)-pyrrolidin-3-yl]-1H-1,3-benzodiazole-4-carbonitrile]",–,–,–,–,–,> 95,–
"CC(C)n1c(N2CCNC(CO)C2)nc2c([N+](=O)[O-])c(Br)c(Br)cc21 (stereo not drawn) [Example 22AD, {4-[5,6-dibromo-4-nitro-1-(propan-2-yl)-1H-1,3-benzodiazol-2-yl]piperazin-2-yl}methanol]",–,–,–,–,–,> 95,"IC50 ([1]; Homo sapiens, MV4-11, 72 h): 0.7 µM; inhibition at 1 µM [3]: 31%; IC50 ([4]; Homo sapiens, 72 h): 6.2 µM; IC50 ([5]; Homo sapiens, HepG2, 72 h): 1.2 µM"
"O=[N+]([O-])c1c(Br)c(Br)cc2c1nc(C1CCNCC1)n2CC1CCNCC1 [Example 27A, 5,6-dibromo-4-nitro-2-(piperidin-4-yl)-1-(piperidin-4-ylmethyl)-1H-1,3-benzodiazole]",–,–,–,–,–,56,–
